# Test results: US9322066B2, “Predictors for cancer treatment” (priority 2011, dated 2016)
# Test system: relapsed or refractory, rituximab-naive or -sensitive follicular B-cell NHL
# Assay: Time to progression (TTP), Vc-R vs rituximab study, by biomarker
# Format: in vivo, human
# Parameters: TTP Median: unit not given here
# Text: Non-Hodgkin lymphoma (NHL) encompasses several unique malignant lymphoid disease entities that vary in clinical behavior, morphologic appearance, immunologic, and molecular phenotype. […] A randomized, open-label, active-controlled, multicenter, multinational, prospective study to compare the efficacy and safety of the combination of bortezomib and rituximab (Vc-R) to single-agent rituximab in subjects who have relapsed or refractory, rituximab-naive or -sensitive follicular B-cell NHL was performed.
# Subjects were centrally randomized to Treatment Groups A (Vc-R) or B (rituximab) in a 1:1 ratio taking into account the following stratification factors: • Follicular Lymphoma International Prognostic Index (FLIPI) score (low [0 or 1 factor], intermediate [2 factors], high [≧3 factors]); • Prior rituximab therapy (yes, no); • Time since last dose of anti-lymphoma therapy (≦1 year, >1 year); • Region (United States/Canada, European Union, Rest of World).
# For single-marker association analyses and pair-wise comparisons, a log rank test and Cox proportional hazard model was utilized for assessments of PFS, TTP, and OS between the treatment groups. Kaplan-Meier curves were utilized to estimate the distribution differences between groups in the time-to-event analyses. Comparison of the response rates between the treatment groups was conducted using the Fishers exact test. Single-marker association analyses were stratified by the covariates.
# For pair-wise comparison analysis, biomarker pairs were formed by combinations of two markers. A log rank test was utilized for assessments of PFS, TTP, and OS between the treatment groups in the subpopulation defined by biomarker pairs. Kaplan-Meier curves were utilized to estimate the distribution differences between groups in the time-to-event analyses. Comparison of the response rates between the treatment groups was conducted using the Fishers exact test. Methods of Analysis for the multiple biomarker comparison models can be found in section 4.6.
# [1] = PSMB1/I208N: T/T, Ann Arbor Stage IV, IRC review
# [2] = PSMB1/I208N: T/T, High Tumor Burden, IRC review
# [3] = PSMB1/I208N: T/T, ≦65 years old, IRC review
# [4] = PSMB1/P11A: C/G, Ann Arbor Stage IV, IRC review
# [5] = PSMB1/P11A: C/G, High Tumor Burden, IRC review
# [6] = PSMB1/P11A: C/G, ≦65 years old, IRC review
# [7] = PSMB1/P193L: C/C, Ann Arbor Stage IV, IRC review
# [8] = PSMB1/P193L: C/C, High Tumor Burden, IRC review
# [9] = PSMB1/P193L: C/C, ≦65 years old, IRC review
# [10] = PSMB2/E49X: G/G, Ann Arbor Stage IV, IRC review
# [11] = PSMB2/E49X: G/G, High Tumor Burden, IRC review
# [12] = PSMB2/E49X: G/G, ≦65 years old, IRC review
# [13] = PSMB2/G187V: G/G, Ann Arbor Stage IV, IRC review
# [14] = PSMB2/G187V: G/G, High Tumor Burden, IRC review
# [15] = PSMB2/G187V: G/G, ≦65 years old, IRC review
# [16] = PSMB2/L159F: C/C, Ann Arbor Stage IV, IRC review
# [17] = PSMB2/L159F: C/C, High Tumor Burden, IRC review
# [18] = PSMB2/L159F: C/C, ≦65 years old, IRC review
# [19] = PSMB5/L206M: C/C, Ann Arbor Stage IV, IRC review
# [20] = PSMB5/L206M: C/C, High Tumor Burden, IRC review
# [21] = PSMB5/L206M: C/C, ≦65 years old, IRC review
# [22] = PSMB5/R24C: C/C, ≦65 years old, IRC review
# [23] = PSMB5/R24C: C/T, 2 Prior Lines of Therapy, IRC review
# [24] = PSMB5/R24C: C/T, High Tumor Burden, IRC review
# [25] = PSMB6/A234D: C/C, Ann Arbor Stage IV, IRC review
# [26] = PSMB6/A234D: C/C, High Tumor Burden, IRC review
# [27] = PSMB6/A234D: C/C, ≦65 years old, IRC review
# [28] = PSMB6/P107A: C/C, Ann Arbor Stage IV, IRC review
# [29] = PSMB6/P107A: C/C, ≦65 years old, IRC review
# [30] = PSMB8/G8R: G/G, Ann Arbor Stage IV, IRC review
# [31] = PSMB8/G8R: G/G, High Tumor Burden, IRC review
# [32] = PSMB8/G8R: G/G, ≦65 years old, IRC review
# [33] = PSMB8/R141C: C/C, Ann Arbor Stage IV, IRC review
# [34] = PSMB8/R141C: C/C, High Tumor Burden, IRC review
# [35] = PSMB8/R141C: C/C, ≦65 years old, IRC review
# [36] = PSMB8/V182M: G/G, >1 year since last anti-lymphoma treatment, IRC review
# [37] = PSMB8/V182M: G/G, Ann Arbor Stage IV, IRC review
# [38] = PSMB8/V182M: G/G, High Tumor Burden, IRC review
# [39] = PSMB8/V182M: G/G, ≦65 years old, IRC review
# [40] = PSMB9/G9E: G/G, >1 year since last anti-lymphoma treatment, IRC review
# [41] = PSMB9/G9E: G/G, Ann Arbor Stage IV, IRC review
# [42] = PSMB9/G9E: G/G, High Tumor Burden, IRC review
# [43] = PSMB9/G9E: G/G, ≦65 years old, IRC review
# [44] = PSMB9/R60H: A/G, Male, IRC review
# [45] = PSMB9/R60H: G/G, ≦65 years old, IRC review
# [46] = PSMB9/V32I: C/C, >1 year since last anti-lymphoma treatment, IRC review
# [47] = PSMB9/V32I: C/C, Ann Arbor Stage IV, IRC review
# [48] = PSMB9/V32I: C/C, No Subgroup, IRC review
# [49] = PSMB9/V32I: C/C, ≦65 years old, IRC review
substance,measurement,setting,value
rituximab,TTP Median,"PSMB1/A171S: G/G, ≦65 years old, IRC review",326
same,TTP Evt/N,[1],95/127
same,TTP Median,[1],278
same,TTP Evt/N,[2],110/147
same,TTP Median,[2],273
same,TTP Evt/N,[3],131/198
same,TTP Median,[3],326
same,TTP Evt/N,[4],46/59
same,TTP Median,[4],235
same,TTP Evt/N,[5],52/72
same,TTP Median,[5],253
same,TTP Evt/N,[6],62/96
same,TTP Median,[6],288
same,TTP Evt/N,[7],95/127
same,TTP Median,[7],278
same,TTP Evt/N,[8],110/147
same,TTP Median,[8],273
same,TTP Evt/N,[9],131/198
same,TTP Median,[9],326
same,TTP Evt/N,[10],95/127
same,TTP Median,[10],278
same,TTP Evt/N,[11],110/147
same,TTP Median,[11],273
same,TTP Evt/N,[12],131/198
same,TTP Median,[12],326
same,TTP Evt/N,[13],95/127
same,TTP Median,[13],278
same,TTP Evt/N,[14],110/147
same,TTP Median,[14],273
same,TTP Evt/N,[15],131/198
same,TTP Median,[15],326
same,TTP Evt/N,[16],95/127
same,TTP Median,[16],278
same,TTP Evt/N,[17],110/147
same,TTP Median,[17],273
same,TTP Evt/N,[18],131/198
same,TTP Median,[18],326
same,TTP Evt/N,[19],95/127
same,TTP Median,[19],278
same,TTP Evt/N,[20],110/147
same,TTP Median,[20],273
same,TTP Evt/N,[21],131/198
same,TTP Median,[21],326
same,TTP Evt/N,[22],115/170
same,TTP Median,[22],334
same,TTP Evt/N,[23],8/10
same,TTP Median,[23],280
same,TTP Evt/N,[24],17/21
same,TTP Median,[24],275
same,TTP Evt/N,[25],95/127
same,TTP Median,[25],278
same,TTP Evt/N,[26],110/147
same,TTP Median,[26],273
same,TTP Evt/N,[27],131/198
same,TTP Median,[27],326
same,TTP Evt/N,[28],92/124
same,TTP Median,[28],279
same,TTP Evt/N,[29],126/189
same,TTP Median,[29],330
same,TTP Evt/N,[30],88/120
same,TTP Median,[30],279
same,TTP Evt/N,[31],104/140
same,TTP Median,[31],271
same,TTP Evt/N,[32],124/189
same,TTP Median,[32],330
same,TTP Evt/N,[33],95/127
same,TTP Median,[33],278
same,TTP Evt/N,[34],110/147
same,TTP Median,[34],273
same,TTP Evt/N,[35],131/198
same,TTP Median,[35],326
same,TTP Evt/N,[36],104/165
same,TTP Median,[36],381
same,TTP Evt/N,[37],95/127
same,TTP Median,[37],278
same,TTP Evt/N,[38],110/147
same,TTP Median,[38],273
same,TTP Evt/N,[39],131/198
same,TTP Median,[39],326
same,TTP Evt/N,[40],104/163
same,TTP Median,[40],381
same,TTP Evt/N,[41],95/126
same,TTP Median,[41],278
same,TTP Evt/N,[42],110/145
same,TTP Median,[42],271
same,TTP Evt/N,[43],131/196
same,TTP Median,[43],326
same,TTP Evt/N,[44],22/28
same,TTP Median,[44],273
same,TTP Evt/N,[45],79/119
same,TTP Median,[45],330
same,TTP Evt/N,[46],102/160
same,TTP Median,[46],379
same,TTP Evt/N,[47],93/123
same,TTP Median,[47],277
same,TTP Median,"PSMB9/V32I: C/C, High Tumor Burden, IRC Review",273
same,TTP Evt/N,[48],177/266
same,TTP Median,[48],345
same,TTP Evt/N,[49],129/192
same,TTP Median,[49],326
